“And” between values parts separate entries of the source, which are not always exact repeats. Equal values may be shown once.
Test system: VCA0107-GFP
Assay: Qrr4 regulation of VCA0107-GFP translational fusion, anhydrous tetracycline-inducible qrr4 (S4 Fig)
Type: cell-based, E. coli
Source text: We examined whether Qrr regulation of CqsS is direct or indirect using a CqsS-mKATE2 translational fusion in E. coli expressing inducible qrr4. We reasoned that, if CqsS production is controlled by Qrr4, repression of CqsS-mKATE2 should occur when Qrr4 is induced. We verified that our system works by showing that inducible Qrr4 is capable of repressing a previously-identified direct target, VCA0107-GFP [24]. However, no repression of CqsS-mKATE2 occurred following induction of Qrr4 (S4 Fig).
To assay qrr4 regulation of cqsS, the relative fluorescence of translational fusions (VCA0107B-GFP and CqsS-mKATE2) was measured in E. coli BWR1. E. coli carrying one of these plasmids also contained either an empty plasmid (pZA31) or pZA31 carrying anhydrous tetracycline-inducible qrr4. Qrr4-mediated repression of CqsS-mKATE2 was assessed. VCA0107-GFP is a known Qrr4-repressed target and was used as a positive control to show the system was functional. Overnight cultures were diluted 1:50 into fresh medium and aliquotted in triplicate into 96 well plates. […] OD600 and fluorescence were assessed using an Envision 2103 Multilabel Reader (Perkin Elmer).
Supplementary file pgen.1006826.s008.tiff: S4 Fig Qrr4 indirectly regulates cqsS. Fluorescence from plasmid-encoded VCA0107-GFP (circles) and CqsS-mKATE2 (squares) was measured in E. coli. Either an empty vector (pZA31-lucNB, black) or pZA31-lucNB carrying tetracycline-inducible qrr4 (pYS245, red) was present in each strain. VCA0107 encodes a type VI secretion system component that is regulated by Qrr4. Data represent two experiments conducted in triplicate. Error bars represent standard errors of the mean. (TIFF) Click here for additional data file.

## Cc1c2c(c(O)c3c(O)cccc13)C(=O)[C@]1(O)C(=O)C(C(N)=O)=C(O)[C@@H](N(C)C)[C@@H]1C2 [aTc]
pVC107 Qrr4, aTc 0.0976562 ng/ml (normalization point)
  Relative reporter signal, experimental averages: 1
pVC107 Qrr4, aTc 0.195312 ng/ml, normalized to 0.0976562 ng/ml
  Relative reporter signal, experimental averages: 1.025 and 0.934
pVC107 Qrr4, aTc 0.390625 ng/ml, normalized to 0.0976562 ng/ml
  Relative reporter signal, experimental averages: 1.044 and 1.031
pVC107 Qrr4, aTc 0.78125 ng/ml, normalized to 0.0976562 ng/ml
  Relative reporter signal, experimental averages: 1.069 and 1.04
pVC107 Qrr4, aTc 1.5625 ng/ml
  Relative reporter signal, single replicates: 0.9829 and 1.022 and 1.084 and 1.082 and 1.066 and 1.076
pVC107 Qrr4, aTc 1.5625 ng/ml, normalized to 0.0976562 ng/ml
  Relative reporter signal, experimental averages: 1.075 and 1.029
pVC107 Qrr4, aTc 3.125 ng/ml
  Relative reporter signal, single replicates: 0.9883 and 0.983 and 1.044 and 1.076 and 1.038 and 1.063
pVC107 Qrr4, aTc 3.125 ng/ml, normalized to 0.0976562 ng/ml
  Relative reporter signal, experimental averages: 1.059 and 1.005
pVC107 Qrr4, aTc 6.25 ng/ml
  Relative reporter signal, single replicates: 0.8986 and 0.9025 and 1.018 and 1.038 and 1.0458 and 1.143
pVC107 Qrr4, aTc 6.25 ng/ml, normalized to 0.0976562 ng/ml
  Relative reporter signal, experimental averages: 1.075 and 0.9397
pVC107 Qrr4, aTc 12.5 ng/ml
  Relative reporter signal, single replicates: 0.8122 and 0.8585 and 0.963 and 0.9294 and 0.9674 and 1.0333
pVC107 Qrr4, aTc 12.5 ng/ml, normalized to 0.0976562 ng/ml
  Relative reporter signal, experimental averages: 0.9767 and 0.8779
pVC107 Qrr4, aTc 25 ng/ml
  Relative reporter signal, single replicates: 0.8439 and 0.8636 and 0.8571 and 0.6965 and 0.6285 and 0.7212
pVC107 Qrr4, aTc 25 ng/ml, normalized to 0.0976562 ng/ml
  Relative reporter signal, experimental averages: 0.6821 and 0.8548
pVC107 Qrr4, aTc 50 ng/ml
  Relative reporter signal, single replicates: 0.8785 and 0.8105 and 0.7819 and 0.6416 and 0.6171 and 0.6104
pVC107 Qrr4, aTc 50 ng/ml, normalized to 0.0976562 ng/ml
  Relative reporter signal, experimental averages: 0.623 and 0.8236
pVC107 Qrr4, aTc 100 ng/ml
  Relative reporter signal, single replicates: 0.9222 and 0.8261 and 0.8207 and 0.6781 and 0.6674 and 0.7021
pVC107 Qrr4, aTc 100 ng/ml, normalized to 0.0976562 ng/ml
  Relative reporter signal, experimental averages: 0.6825 and 0.8563
pVC107 Qrr4, aTc 200 ng/ml
  Relative reporter signal, single replicates: 0.9029 and 0.8931 and 0.8706 and 0.7542 and 0.8262 and 0.8413
pVC107 Qrr4, aTc 200 ng/ml, normalized to 0.0976562 ng/ml
  Relative reporter signal, experimental averages: 0.8072 and 0.8889
pVC107 vector, aTc 0.0976562 ng/ml (normalization point)
  Relative reporter signal, experimental averages: 1
pVC107 vector, aTc 0.195312 ng/ml, normalized to 0.0976562 ng/ml
  Relative reporter signal, experimental averages: 1.1928 and 0.9542
pVC107 vector, aTc 0.390625 ng/ml, normalized to 0.0976562 ng/ml
  Relative reporter signal, experimental averages: 1.239 and 0.9963
pVC107 vector, aTc 0.78125 ng/ml
  Relative reporter signal, single replicates: 1.048 and 0.979 and 1.04 and 0.9279
pVC107 vector, aTc 0.78125 ng/ml, normalized to 0.0976562 ng/ml
  Relative reporter signal, experimental averages: 1.09 and 0.9823
pVC107 vector, aTc 1.5625 ng/ml
  Relative reporter signal, single replicates: 1.061 and 1.021 and 0.9897 and 0.9644 and 1.121 and 1.094
pVC107 vector, aTc 1.5625 ng/ml, normalized to 0.0976562 ng/ml
  Relative reporter signal, experimental averages: 1.092 and 0.9917
pVC107 vector, aTc 3.125 ng/ml
  Relative reporter signal, single replicates: 0.9263 and 0.9693 and 1.011 and 0.9278 and 1.0391 and 1.108
pVC107 vector, aTc 3.125 ng/ml, normalized to 0.0976562 ng/ml
  Relative reporter signal, experimental averages: 1.024 and 0.9695
pVC107 vector, aTc 6.25 ng/ml
  Relative reporter signal, single replicates: 0.9938 and 0.9834 and 0.9842 and 0.9532 and 1.085 and 1.105
pVC107 vector, aTc 6.25 ng/ml, normalized to 0.0976562 ng/ml
  Relative reporter signal, experimental averages: 1.061 and 0.9736
pVC107 vector, aTc 12.5 ng/ml
  Relative reporter signal, single replicates: 0.9967 and 0.9285 and 1.002 and 0.9658 and 1.022 and 1.055
pVC107 vector, aTc 12.5 ng/ml, normalized to 0.0976562 ng/ml
  Relative reporter signal, experimental averages: 1.025 and 0.9655
pVC107 vector, aTc 25 ng/ml
  Relative reporter signal, single replicates: 1.488 and 0.9589 and 0.9637 and 0.9614 and 1.035 and 1.177
pVC107 vector, aTc 25 ng/ml, normalized to 0.0976562 ng/ml
  Relative reporter signal, experimental averages: 1.233 and 0.9614
pVC107 vector, aTc 50 ng/ml
  Relative reporter signal, single replicates: 1.1512 and 1.025 and 1.023 and 0.9608 and 1.174 and 1.186
pVC107 vector, aTc 50 ng/ml, normalized to 0.0976562 ng/ml
  Relative reporter signal, experimental averages: 1.17 and 1.003
pVC107 vector, aTc 100 ng/ml
  Relative reporter signal, single replicates: 1.032 and 0.8995 and 0.9791 and 1.0414 and 1.344 and 1.183
pVC107 vector, aTc 100 ng/ml, normalized to 0.0976562 ng/ml
  Relative reporter signal, experimental averages: 1.1863 and 0.9733
pVC107 vector, aTc 200 ng/ml
  Relative reporter signal, single replicates: 1.427 and 1.005 and 1.106 and 1.055 and 1.369 and 1.3707
pVC107 vector, aTc 200 ng/ml, normalized to 0.0976562 ng/ml
  Relative reporter signal, experimental averages: 1.389 and 1.0553

Source: PMC5467912, “Asymmetric regulation of quorum-sensing receptors drives autoinducer-specific gene expression programs in Vibrio cholerae” (PLoS Genetics, 2017)
